Results as given in patent US9873693B2 (Sunesis Pharmaceuticals, Inc., priority 2006, dated 2018).
Like-named read-outs stand apart in the source and are kept apart here.

Tests used:
dephosphorylated PDK1 = dephosphorylated PDK1 (Homo sapiens (Human), UniProt O15530); test: PDK1 kinase assay (coupled PDK1/AKT/FAM-crosstide, IMAP); type: biochemical; conditions: 25 nM un-phosphorylated PDK1, 24 μM ATP; read-out: Inhibition of dephospo-PDK1 in vitro IC50
Procedure, shortened: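 Coupled cascade using 25 nM dephosphorylated PDK1 (aa 51–360, lambda-phosphatase treated, MS-verified), 30 nM unphosphorylated GST-AKT2 (aa 140–467)-PIFtide and 100 nM FAM-crosstide in Tris pH 7.2, 10 mM MgCl2, 1 mM DTT. ATP was 24 μM, with 30 min at 25 °C. Product was read by IMAP fluorescence polarization, and ΔmP against concentration was fitted with a 4-parameter model.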

phosphorylated PDK1 = phosphorylated PDK1 (Homo sapiens (Human), UniProt O15530); test: as above; type: biochemical; conditions: 0.5 nM phosphorylated PDK1, 24 μM ATP; read-out: Inhibition of phospo-PDK1 in vitro IC50
Sequence of phosphorylated PDK1 (O15530 51-360): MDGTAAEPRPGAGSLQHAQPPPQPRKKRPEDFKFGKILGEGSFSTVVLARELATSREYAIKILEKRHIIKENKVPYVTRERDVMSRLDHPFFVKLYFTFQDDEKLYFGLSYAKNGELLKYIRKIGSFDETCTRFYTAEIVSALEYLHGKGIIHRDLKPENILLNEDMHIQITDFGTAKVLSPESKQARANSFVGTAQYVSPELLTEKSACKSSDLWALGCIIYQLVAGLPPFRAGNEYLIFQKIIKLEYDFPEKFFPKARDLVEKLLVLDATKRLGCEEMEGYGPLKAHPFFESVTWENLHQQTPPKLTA

full-length PDK1 = full-length PDK1 (Homo sapiens (Human), UniProt O15530); test: PDK phosphorylation of AKT and PKC-PIFtide in presence of PIP3 vesicles; type: biochemical; conditions: substrates PKC-PIFtide vs AKT2
Sequence of full-length PDK1 (O15530 whole entry): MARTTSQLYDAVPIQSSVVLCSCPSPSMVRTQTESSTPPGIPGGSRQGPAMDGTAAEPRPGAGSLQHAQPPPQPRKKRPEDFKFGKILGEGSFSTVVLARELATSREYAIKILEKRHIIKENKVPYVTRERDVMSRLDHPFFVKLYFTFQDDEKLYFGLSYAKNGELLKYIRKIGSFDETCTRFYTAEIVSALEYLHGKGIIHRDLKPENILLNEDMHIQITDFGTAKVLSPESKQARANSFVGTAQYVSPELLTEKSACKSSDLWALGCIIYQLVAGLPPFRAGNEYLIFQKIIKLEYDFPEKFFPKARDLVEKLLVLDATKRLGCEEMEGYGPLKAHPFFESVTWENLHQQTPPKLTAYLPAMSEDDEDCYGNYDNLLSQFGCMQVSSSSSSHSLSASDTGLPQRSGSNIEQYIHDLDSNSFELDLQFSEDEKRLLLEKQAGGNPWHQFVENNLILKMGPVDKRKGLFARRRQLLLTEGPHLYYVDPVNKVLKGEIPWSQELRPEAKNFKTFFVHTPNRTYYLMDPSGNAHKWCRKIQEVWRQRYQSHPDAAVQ
Procedure: PDK phosphorylation of two different substrates, AKT and PKC-PIFtide, was measured in presence of pre-formed phophoinositol lipid PIP3 vesicles. 5 nM full-length PDK1 and was incubated with 100 nM substrate (unphosphorylated, full-length AKT2 or PKC-PIFtide, Invitrogen cat#P2925) in presence of test compound or DMSO at room temperature for 3 hours. Final buffer conditions were 10 mM Tris pH 7.5 buffer containing 10 mM MgCl2, 0.002% Triton X-100, 1 mM DTT, 0.2 mg/ml BSA, 10 uM PtdIns(3,4,5)P3 (Matreya, Inc), 100 uM DOPC:DOPS (Avanti Polar Lipids), and 0.5 uCi γ^33P-ATP (3000 Ci/mmol, Perkin-Elmer.)
Kinase reactions were stopped with addition of 50 uM non-labelled ATP and 5 mM EDTA, then acidified with 0.5% final concentration phosphoric acid. Labeled proteins were collected in Whatman P81 filter plates and washed with three 150 ul volumes of 0.5% phosphoric acid.
Lipid vesicles were pre-formed as follows. 15 mg (3 ampules) DOPC:DOPS was resuspended in 898 ul 10 mM HEPES pH 7.4. 1 mg PIP3 was resuspended in 1000 ul 10 mM HEPES pH 7.4. 964 ul of PIP3 was mixed with 800 ul DOPC:DOPS and diluted with 18.2 ml 10 mM HEPES pH 7.4 and mixed by vortexing. The lipid mixture was subjected to 5 cycles of freeze/thaw using liquid nitrogen and a 50° C. water bath. Aliquot of lipids were flash frozen and stored at −20° C.

phospho-akt (Thr308) = phospho-akt (Thr308) MSD ELISA in PC-3 cells; type: cell-based; conditions: Homo sapiens, PC-3, 2 h, PC-3 cells, 2 hours, no serum
Procedure, shortened: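 PC-3 cells plated overnight in 10% FBS medium, then treated with three-fold serial compound dilutions in serum-free medium; DMSO-only wells as high control. Lysates captured on BSA-blocked MSD plates overnight at 4 degrees, detection antibody 1 hr RT, electrochemiluminescence read on MSD reader.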

Phospho-T308 Akt = Phospho-T308 Akt detection using immunoblot (western blot) in PC-3 cells; type: cell-based
Procedure, shortened: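 PC-3 prostate cells, cultured overnight in F12K plus 10% FBS, were treated for 2 h at 37 °C in serum-free medium with compound A (1000× DMSO dilutions). Lysate protein was immunoblotted with anti-phospho-Akt Thr308. Bands were quantified by background-subtracted densitometry, giving EC50 by non-linear regression and percent decrease at 2 μM and 5 μM.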

[1] = system: phospho-akt (thr308), phospho-PKC delta (thr505), phospho-PKC (thr538), phospho-PKC zeta (thr410); test: Phospho-PKC detection using immunoblot in PC-3 cells; type: cell-based; conditions: FIG. 2; at 2 hours and 18 hours
Procedure: The Phospho-PKC Detection was performed using immunoblot analysis as follows. The cell activity of test compounds, were assessed using immunoblot analysis for phospho-akt (thr308), phospho-PKC delta (thr505), phospho-PKC (thr538) and phospho-PKC zeta (thr410).
PC-3 prostate cells were plated in a 100 mm tissue culture dish in F12K media (Invitrogen, Carlsbad, Calif.) plus 10% FBS (Invitrogen) and placed in incubator overnight. The stocks of test compounds were a 50 mM solution in DMSO. For some test compounds a 5 mM solution was made in DMSO then directly diluted (1 μM and 5 μM final concentration) into fresh media with no serum. For other test compounds the 50 mM stock was directly diluted (10 μM and 30 μM final concentrations) into fresh media with no serum. For the control, DMSO was added to media with no serum at a final concentration of 0.1%. Cells were incubated with compound for 2 hrs or 18 hrs at 37° C. Cells were harvested and washed in PBS and subjected to centrifugation at 3,300 rpm for 5 minutes. The cell pellet was lysed in 150 μl Pierce (Rockford, Ill.) M-PER lysis buffer plus protease inhibitors and phosphatase inhibitors (Sigma, St. Louis, Mo.) for 30 minutes on ice followed by centrifugation at 13,000 rpm for 5 minutes. The protein content of the supernatant was assayed using DC Protein Assay (BioRad, Hercules, Calif.). […]

[2] = read-out: Inhibition of P308 Akt in cells using MSD EC50
[3] = read-out: Reduction of Cellular Levels of Akt p308 By MSD ELISA (EC50 μM)

Sequence of dephosphorylated PDK1 (O15530 51-360): as the sequence (O15530 51-360) above

SMILES | IC50 (dephosphorylated PDK1) [nM] | IC50 (phosphorylated PDK1) [nM] | Ratio of PIP3 IC50 with PKCtide to PIP3 IC50 with AKT (full-length PDK1) | EC50 (phospho-akt (Thr308); [2]) [µM] | EC50 (phospho-akt (Thr308); [3]) [µM] | Reduction of Cellular Levels of Akt p308 By Western (Phospho-T308 Akt; 2 hour incubation, concentration not given in Table 2) | inhibition at 2 µM (Phospho-T308 Akt; Homo sapiens, at 2 μM, read-out: Percent Inhibition of phospho-Akt (308) By Western) [%] | inhibition of PDK1 mediated phosphorylation of Akt relative to PKC isoforms [1]
COc1ccnc(NCCC#CCNC(=O)c2cccn(Cc3ccc(F)c(F)c3)c2=O)n1 [Cpd 109] | < 500 | < 500 | 51.8 |  |  |  |  | 
O=C(NCCCCc1c[nH]c2ncccc12)c1cccn(Cc2ccc(F)c(F)c2)c1=O [Cpd 110] | < 500 | < 500 | 13.5 |  |  |  |  | 
O=C(NCc1ccc(-c2c[nH]c3ncccc23)s1)c1cccn(Cc2ccc(F)c(F)c2)c1=O [Cpd 2] | < 500 | < 500 | 36.7 | 1 to 5 | 1 to 5 |  |  | 
O=C(N[C@@H](COc1ccc2[nH]c(=O)[nH]c2c1)c1ccccc1)c1cccn(Cc2ccc(F)c(F)c2)c1=O [Cpd 144] |  |  |  | < 1 | < 1 | bbb (inhibition of more than 75%) | > 75 | selective inhibition of PDK1 mediated phosphorylation of Akt relative to PDK1 mediated phosphorylation of PKC isoforms
COc1ccnc(NCCC#CCCNC(=O)c2cccn(Cc3cccc(Cl)c3)c2=O)n1 [Cpd 102] | < 500 | 500 to 10000 | 19.1 |  |  |  |  | 
